Reference: PubChem BioAssay (NCI)
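The compound was tested at five concentrations on cells cultured in 96-well plates, with a 48-hour exposure period. At the TGI there is no net growth.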

Key:
Experiment in all cases: growth of human tumour cells (NCI), 48 h
MALME-3M melanoma = test system: MALME-3M melanoma
SK-MEL-28 melanoma = test system: SK-MEL-28 melanoma
NCI-H226 lung = test system: NCI-H226 lung
SK-MEL-5 melanoma = test system: SK-MEL-5 melanoma
OVCAR-3 ovarian = test system: OVCAR-3 ovarian
SK-MEL-2 melanoma = test system: SK-MEL-2 melanoma
RXF 393 renal = test system: RXF 393 renal
OVCAR-8 ovarian = test system: OVCAR-8 ovarian
UACC-62 melanoma = test system: UACC-62 melanoma
U251 CNS = test system: U251 CNS
LXFL 529 NSCLC = test system: LXFL 529 NSCLC
SF-539 CNS = test system: SF-539 CNS
UO-31 renal = test system: UO-31 renal
ACHN renal = test system: ACHN renal
SNB-75 CNS = test system: SNB-75 CNS
HOP-92 NSCLC = test system: HOP-92 NSCLC
HOP-62 NSCLC = test system: HOP-62 NSCLC
CCRF-CEM leukemia = test system: CCRF-CEM leukemia
HCC-2998 colon = test system: HCC-2998 colon
HT29 colon = test system: HT29 colon
NCI-H23 lung = test system: NCI-H23 lung
COLO 205 colon = test system: COLO 205 colon
RPMI-8226 leukemia = test system: RPMI-8226 leukemia
UACC-257 melanoma = test system: UACC-257 melanoma
DLD-1 colon = test system: DLD-1 colon
SK-OV-3 ovarian = test system: SK-OV-3 ovarian
HCT-116 colon = test system: HCT-116 colon
SF-268 CNS = test system: SF-268 CNS
SNB-19 CNS = test system: SNB-19 CNS
TK-10 renal = test system: TK-10 renal
DMS 114 small cell lung = test system: DMS 114 small cell lung
LOX IMVI melanoma = test system: LOX IMVI melanoma
KM20L2 colon = test system: KM20L2 colon
A549 NSCLC = test system: A549 NSCLC
SW-620 colon = test system: SW-620 colon
EKVX NSCLC = test system: EKVX NSCLC
HCT-15 colon = test system: HCT-15 colon
786-0 renal = test system: 786-0 renal
OVCAR-4 ovarian = test system: OVCAR-4 ovarian
DMS 273 small cell lung = test system: DMS 273 small cell lung
XF 498 CNS = test system: XF 498 CNS
K-562 leukemia = test system: K-562 leukemia
M14 melanoma = test system: M14 melanoma
M19-MEL melanoma = test system: M19-MEL melanoma
HOP-18 NSCLC = test system: HOP-18 NSCLC
SNB-78 CNS = test system: SNB-78 CNS
OVCAR-5 ovarian = test system: OVCAR-5 ovarian
IGROV1 ovarian = test system: IGROV1 ovarian
A498 renal = test system: A498 renal
NCI-H522 lung = test system: NCI-H522 lung
KM12 colon = test system: KM12 colon
SF-295 CNS = test system: SF-295 CNS
NCI-H460 lung = test system: NCI-H460 lung
CAKI-1 renal = test system: CAKI-1 renal
HL-60(TB) leukemia = test system: HL-60(TB) leukemia
RXF-631 renal = test system: RXF-631 renal
MOLT-4 leukemia = test system: MOLT-4 leukemia

Cc1c(CCO)c(=O)n2c([nH]c3ccccc32)c1C#N
TGI (MALME-3M melanoma): > 100 µM | TGI (SK-MEL-28 melanoma): > 100 µM | TGI (NCI-H226 lung): > 100 µM | TGI (SK-MEL-5 melanoma): > 100 µM | TGI (OVCAR-3 ovarian): > 100 µM | TGI (SK-MEL-2 melanoma): > 100 µM | TGI (RXF 393 renal): > 100 µM | TGI (OVCAR-8 ovarian): > 100 µM | TGI (UACC-62 melanoma): > 100 µM | TGI (U251 CNS): > 100 µM | TGI (LXFL 529 NSCLC): > 100 µM | TGI (SF-539 CNS): > 100 µM | TGI (UO-31 renal): > 100 µM | TGI (ACHN renal): > 100 µM | TGI (SNB-75 CNS): > 100 µM | TGI (HOP-92 NSCLC): > 100 µM | TGI (HOP-62 NSCLC): > 100 µM | TGI (CCRF-CEM leukemia): > 100 µM | TGI (HCC-2998 colon): > 100 µM | TGI (HT29 colon): > 100 µM | TGI (NCI-H23 lung): > 100 µM | TGI (COLO 205 colon): > 100 µM | TGI (RPMI-8226 leukemia): > 100 µM | TGI (UACC-257 melanoma): > 100 µM | TGI (DLD-1 colon): > 100 µM | TGI (SK-OV-3 ovarian): > 100 µM | TGI (HCT-116 colon): > 100 µM | TGI (SF-268 CNS): > 100 µM | TGI (SNB-19 CNS): 91.8 µM | TGI (TK-10 renal): > 100 µM | TGI (DMS 114 small cell lung): > 100 µM | TGI (LOX IMVI melanoma): > 100 µM | TGI (KM20L2 colon): > 100 µM | TGI (A549 NSCLC): > 100 µM | TGI (SW-620 colon): > 100 µM | TGI (EKVX NSCLC): > 100 µM | TGI (HCT-15 colon): > 100 µM | TGI (786-0 renal): > 100 µM | TGI (OVCAR-4 ovarian): > 100 µM | TGI (DMS 273 small cell lung): > 100 µM | TGI (XF 498 CNS): > 100 µM | TGI (K-562 leukemia): > 100 µM | TGI (M14 melanoma): > 100 µM | TGI (M19-MEL melanoma): > 100 µM | TGI (HOP-18 NSCLC): > 100 µM | TGI (SNB-78 CNS): > 100 µM | TGI (OVCAR-5 ovarian): > 100 µM | TGI (IGROV1 ovarian): > 100 µM | TGI (A498 renal): > 100 µM | TGI (NCI-H522 lung): > 100 µM | TGI (KM12 colon): > 100 µM | TGI (SF-295 CNS): > 100 µM | TGI (NCI-H460 lung): 98.8 µM | TGI (CAKI-1 renal): > 100 µM

NC(=O)c1ccccc1NC(=O)C(=O)Cc1nc2ccccc2[nH]c1=O
TGI (MALME-3M melanoma): > 100 µM | TGI (SK-MEL-28 melanoma): > 100 µM | TGI (SK-MEL-5 melanoma): > 100 µM | TGI (OVCAR-3 ovarian): > 100 µM | TGI (SK-MEL-2 melanoma): > 100 µM | TGI (RXF 393 renal): > 100 µM | TGI (OVCAR-8 ovarian): > 100 µM | TGI (HL-60(TB) leukemia): > 100 µM | TGI (UACC-62 melanoma): > 100 µM | TGI (U251 CNS): > 100 µM | TGI (LXFL 529 NSCLC): > 100 µM | TGI (SF-539 CNS): > 100 µM | TGI (RXF-631 renal): > 100 µM | TGI (UO-31 renal): > 100 µM | TGI (ACHN renal): > 100 µM | TGI (SNB-75 CNS): > 100 µM | TGI (HOP-92 NSCLC): > 100 µM | TGI (HOP-62 NSCLC): > 100 µM | TGI (CCRF-CEM leukemia): > 100 µM | TGI (HCC-2998 colon): > 100 µM | TGI (NCI-H23 lung): > 100 µM | TGI (COLO 205 colon): > 100 µM | TGI (RPMI-8226 leukemia): > 100 µM | TGI (UACC-257 melanoma): > 100 µM | TGI (DLD-1 colon): > 100 µM | TGI (SK-OV-3 ovarian): > 100 µM | TGI (HCT-116 colon): > 100 µM | TGI (SF-268 CNS): > 100 µM | TGI (SNB-19 CNS): > 100 µM | TGI (TK-10 renal): > 100 µM | TGI (DMS 114 small cell lung): > 100 µM | TGI (LOX IMVI melanoma): > 100 µM | TGI (KM20L2 colon): > 100 µM | TGI (MOLT-4 leukemia): > 100 µM | TGI (A549 NSCLC): > 100 µM | TGI (SW-620 colon): > 100 µM | TGI (EKVX NSCLC): > 100 µM | TGI (HCT-15 colon): > 100 µM | TGI (786-0 renal): > 100 µM | TGI (OVCAR-4 ovarian): > 100 µM | TGI (DMS 273 small cell lung): > 100 µM | TGI (K-562 leukemia): > 100 µM | TGI (M14 melanoma): > 100 µM | TGI (M19-MEL melanoma): > 100 µM | TGI (OVCAR-5 ovarian): > 100 µM | TGI (IGROV1 ovarian): > 100 µM | TGI (A498 renal): > 100 µM | TGI (NCI-H522 lung): > 100 µM | TGI (KM12 colon): > 100 µM | TGI (SF-295 CNS): > 100 µM | TGI (NCI-H460 lung): > 100 µM | TGI (CAKI-1 renal): > 100 µM
